Laboratory results reported in patent US10782295B2, “Cysteine-reactive ligand discovery in proteomes” (THE SCRIPPS RESEARCH INSTITUTE, priority 2013, dated 2020).

Molecular target: T1, WT-ZAK (Homo sapiens, UniProt Q9NYL2)
T1 construct: Full-length cDNA encoding human ZAK-13 (BC001401); expressed in transfected cells
Assay: gel-based ABPP with IA-rhodamine probe
Assay type: binding
Details: 10, 50 and 100 μM, 30 min; HEK-293T lysate
Excerpt: The gel signals for IA-labeling of WT-ZAK were blocked by pretreatment with HNE over a concentration range that closely matched the HNE-sensitivity profile observed for C22 in competitive isoTOP-ABPP experiments (FIG. 4b, compare to FIG. 3a). […] Considering further that C22 is predicted to reside adjacent to the ATP-binding loop of ZAK, we postulated that the HNE-induced loss of kinase activity might be due to blockade of ATP-binding.
Full-length cDNA encoding human ZAK-13 (BC001401) in pOTB7 was purchased from Open BioSystems and subcloned into pFLAG-CMV-6c (Sigma-Aldrich). ZAK-C22A and ZAK-K45M mutants were generated by QuikChange site-directed mutagenesis using the primer 5′-[…]-3′ (SEQ ID NO:1) and 5′-[…]-3′ (SEQ ID NO:2) and their complements. Wild-type and mutant ZAK were cloned into a modified pCLNCX retroviral vector. Retrovirus was prepared by taking 3.0 μg of each of pCLNCX and pCL-Ampho vectors and […], of FuGENE IID reagent (Roche) to transfect 60% confluent HEK-293T cells. […]
FLAG-tagged wild-type and C22A mutant ZAK were immunoprecipitated from HEK-293T cells ([…]). […] Gel samples were separated by SDS-PAGE (50 μL of sample/lane) and visualized in-gel using a Hitachi FMBio II flatbed laser-induced fluorescence scanner (MiraiBio, Alameda, Calif.). […]

T1 sequence (Q9NYL2 1-455 isoform Q9NYL2-2): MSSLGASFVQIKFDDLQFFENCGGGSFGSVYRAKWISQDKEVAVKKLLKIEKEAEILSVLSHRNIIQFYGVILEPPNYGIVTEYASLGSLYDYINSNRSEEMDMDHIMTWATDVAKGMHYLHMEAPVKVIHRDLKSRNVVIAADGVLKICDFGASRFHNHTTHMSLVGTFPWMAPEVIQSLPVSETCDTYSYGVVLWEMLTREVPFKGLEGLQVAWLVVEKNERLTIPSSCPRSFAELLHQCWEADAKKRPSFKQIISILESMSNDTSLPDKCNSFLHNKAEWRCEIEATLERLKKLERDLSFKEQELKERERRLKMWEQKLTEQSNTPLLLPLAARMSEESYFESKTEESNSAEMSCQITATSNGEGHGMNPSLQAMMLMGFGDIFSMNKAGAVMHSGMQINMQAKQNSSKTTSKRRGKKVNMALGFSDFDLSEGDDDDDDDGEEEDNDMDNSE

## CCCCCC(O)/C=C/C=O (stereo not shown) [4-HNE, 4-Hydroxynonenal]
  gel signals for IA-labeling of WT-ZAK after pretreatment: blocked
